Read-outs that look alike come from different tables or passages of the source. Blank lines part the entries; values can stand above or below the compound they belong to.
Experiments:
Jurkat cells = assay: 96-well microtiter plate drug screening assay (Alamar Blue); assay type: cell-based, human; conditions: 96-well plate, 16-24 h
Protocol: (§1) Jurkat E6.1 cells (ATCC® TIB-152™) and MDA-MB-231 cells (ATCC® HTB-26™) were used as models for suspended and adherent cancer cell lines respectively. Jurkat cell line was derived from human acute T cell leukemia, whereas MDA-MB-231 cell line was derived from human metastatic breast adenocarcinoma.
(§2) Microtiter plate drug screening assays were carried out on 96-well clear round flat-bottom plates (Corning, USA) or 384-well white square flat-bottom plates (Corning, USA).
(§3) First, 5.0×10^5 or 1.0×10^5 cells were seeded per well for 96-well and 384-well plates respectively. Drugs were diluted with Dulbecco's phosphate-buffered saline (DPBS) (Life Technologies, USA), and subsequently added to achieve final drug concentrations as indicated on the graphs. Afterwards, the plates were transferred to humidified incubator at 37° C. supplemented with 5% CO2 for 16-24 h incubation. Finally, Alamar Blue assay was used to measure cell viability. Fluorescence intensity (Ex. 560 nm, Em. 590 nm) using auto-cutoff was measured from bottom on plate reader (Molecular Devices SpectraMax MS Plate Reader, USA). Cells treated with 0.1% dimethyl sulfoxide (DMSO) were used as negative control, while no cells were added to blank control. All experiments were performed in triplicate for 96-well plates and in quadruplicates for 384-well relates.
(§4) For microliter plate assays, average relative fluorescence signal measured by plate reader from 6 reads of each well was used as raw data point. Cell viability was calculated as follows: […]
(§5) where Sample represented raw data points of each sample well, whereas DMSO control and Blank represented average raw data points of all DMSO control and Blank wells, respectively.

MDA-MB-231 cells = assay: as above; assay type: cell-based, human; conditions: 96-well plate
Protocol: as §1, §2, §3, §4, §5

[1] = tested on: primary tumor cell NAS1604 (nasopharyngeal tumor); assay: On chip drug screening of primary tumor dissociated cells; assay type: cell-based, human
[2] = tested on: NAS1608 human primary nasopharyngeal tumor sample; assay: cells; assay type: cell-based; conditions: for viability at 1 µM / viability at 10 µM / cytotoxicity at 10 µM: Homo sapiens; for viability at 1 µM / viability at 10 µM: read-out: mean cell viability; for droplet cell viability range: 17 h post-treatment; for range of droplet cell viability: before treatment (0 h); for mean cell death: normalized to DMSO control, calibrated by 0 h data
[3] = tested on: NAS1607 primary nasopharyngeal tumor sample; assay: On chip drug screening of primary tumor dissociated cells; assay type: cell-based, human
Protocol: All human studies were conducted with the approval of the Panel on Research Ethics of University of Macau and the Research Ethics Committee of Kiang Wu Hospital, according to the Materials Transfer Agreement between University of Macau and Kiang Wu Hospital. Informed consent for sampling and publication without identifiable information was obtained from all participating patients. All patient sample names were double encoded by the university and the hospital, respectively, to remove any trace of patient identity during sample collection, transfer, processing and analysis. Primary tumors were obtained from surgery conducted at Kiang Wu Hospital immediately after tumor resection. Tumor tissue was dissociated as previously described. Briefly, tumor tissue was first cut into small pieces by a scalpel, then transferred to a 50 mL conical tube containing 5 mL Digestion Buffer I (DMEM/F12 medium containing 5% FBS, 5 μg/mL insulin, 500 ng/mL hydrocortisone, 10 ng/mL epidermal growth factor (EGF), 20 ng/mL cholera toxin, 300 U/mL collagenase III and 100 U/mL hyaluronidase), and digested for no more than 12 h with shaking at 100 rpm in humidified incubator at 37° C. supplemented with 5% CO2. After spinning down at 400 g at ambient temperature for 2 min, the cells were resuspended with 2 mL Digestion Buffer II (DMEM/F12 medium containing 5 mg/mL dispase II and 0.1 mg/mL deoxyribonuclease I), followed by digestion at ambient temperature for 5 min. The cells were then washed with 10 mL HBSS (Life Technologies, USA). […]
Briefly, cells at final concentrations of 1-2×10^6 cells per mL were aliquoted in 0.2 mL PCR tubes, then mixed with corresponding drugs and 2 μM ethidium homodimer 1 (Life Technologies, USA) by manual pipetting. […] Brightfield and red fluorescence images (Ex. 531/40 nm, Em. 593/40 nm) were taken under 10× magnification (Life Technologies EVOS FL Imaging System, USA).
For on chip assays, the number of cells was counted in brightfield and red fluorescence images from each well respectively. Cell viability was calculated as follows: […]

IC50 (Jurkat cells; Homo sapiens): 22.1 µM
IC50 (MDA-MB-231 cells; Homo sapiens): > 10 µM
Structure (SMILES): CC(C)C[C@H](NC(=O)[C@H](Cc1ccccc1)NC(=O)c1cnccn1)B(O)O [bortezomib]
range of droplet cell viability ([1]; NAS1604, 1 μM bortezomib): 42.6%
mean cell viability compared with other treatments ([1]; NAS1604, 1 μM, versus DMSO and cisplatin): highest mean cell viability
viability at 1 µM ([2]; 0 h): 72.9%
viability at 10 µM ([2]; 0 h): 78.8%
cytotoxicity at 10 µM ([2]; 17 h, read-out: droplet cell viability reduction in the majority of droplets): 35 to 55%
cytotoxicity at 10 µM ([2]; 17 h, read-out: maximum reduction of droplet cell viability): 62.9%
viability at 1 µM ([2]; 17 h): 42.5%
viability at 10 µM ([2]; 17 h): 34.6%
cytotoxicity at 10 µM ([2]; 17 h, read-out: minimum reduction of droplet cell viability): 29.3%
share of total sample cell population in droplets with viability reduction of over 30% ([2]; NAS1608, 10 μM bortezomib, 17 h): 92.4%
droplet cell viability range ([2]; NAS1608, 10 μM bortezomib): 49.7%
range of droplet cell viability ([2]; NAS1608, 10 μM bortezomib): 29.0%
mean cell death ([2]; NAS1608, 10 μM, 17 h): 51.7%
dose dependence of normalized cell viability ([2]; NAS1608, 16-24 h, normalized to mock treatment): dose-dependent reduction of cell viability
dose dependence of normalized cell viability ([3]; NAS1607, 16-24 h, normalized to mock treatment): inverse correlation

Structure (SMILES): N.N.[Cl][Pt][Cl] [cisplatin]
IC50 (Jurkat cells): 39 µM
IC50 (MDA-MB-231 cells): > 50 µM
mean cell viability compared with other treatments ([1]; NAS1604, 20 μM): lowest mean cell viability
range of droplet cell viability ([1]; NAS1604, 20 μM cisplatin): 64.0%
droplet cell viability range ([2]; NAS1608, 100 μM cisplatin): 56.5%
range of droplet cell viability ([2]; NAS1608, 100 μM cisplatin): 31.1%
mean cell death ([2]; NAS1608, 100 μM, 17 h): 21.0%
susceptibility ([3]; NAS1607, 100 μM and 33 μM): leveled off

From patent publication US20190291112A1, “DROPLET MICROFLUIDICS FOR DRUG SCREENING” (University of Macau, priority 2018, published 2019)
